Data reported in patent publication US20260174829A1, “METHODS OF REDUCING TYPE 2 CYTOKINE-MEDIATED INFLAMMATION USING NEUROMEDIN PEPTIDES” (Rutgers, The State University of New Jersey, priority 2018, published 2026).

system: TH2 cells; assay: Anti-CD3/anti-CD28 stimulated lymph node cells (day 7 post-Nb), IL-5/IL-13 ELISA; format: cell-based, mouse; details: LN cells day 7 post-Nb, anti-CD3 and anti-CD28, 48 hours
Description: FIGS. 7A-7I. Nmb treatment is sufficient to suppress allergic airway inflammation. Mice challenged with papain were treated with PBS or Nmb (i.t.) and (A) Lung ILC2s, (B) IL-5+ and IL-13+ ILC2s, and (C) eosinophils were evaluated. […] Mesenteric lymph nodes (MLNs) were isolated on day 7 post-Nb and single cells suspensions were treated with anti-CD3 and anti-CD28 in the presence or absence of Nmb for 48 hours and (E), IL-5 and (F) IL-13 were quantified in cell-free supernatants by ELISA. (F-I), Modified versions of Nmb (see Table 2) were tested for their ability to alter IL-5 and IL-13 production from anti-CD3 and anti-CD28 MLN cells isolated on day 7 post-Nb. P values were determined by two-tailed Student's t-tests. Blue asterisks represent comparisons between media treated controls and native Nmb. Red asterisks represent comparisons between media treated controls and modified version of Nmb as described in Table 2. (*,p<0.05), (**,p<0.01), (***,p<0.001) or (F-I).
FIGS. 8A-8B. Mesenteric lymph nodes (MLNs) were isolated on day 7 post-Nb and single cells suspensions were treated with anti-CD3 and anti-CD28 in the presence or absence of native Nmb or modified versions of the peptide for 48 hours and (A), IL-5 and (B) IL-13 were quantified in cell-free supernatants by ELISA. P values were determined by two-tailed Student's t-tests. Blue asterisks represent comparisons between media treated controls and native Nmb. Red asterisks represent comparisons between media treated controls and modified version of Nmb as described in Table 2. (*,p<0.05), (**,p<0.01), (***,p<0.001).
At the time points evaluated post-Nb, the majority of the type 2 cytokines are ILC2-derived (14) and any effects Nmb is having on TH2 cell responses may be difficult to detect. To address this, lung-draining LNs were isolated on day 7 post-Nb and stimulated with anti-CD3 and -CD28 to activate T cells in both the presence of absence of recombinant Nmb. LN cells treated with anti-CD3 and -CD28 produced increased amounts of IL-5, and IL-13 (FIGS. 7D, 7E).
Thus, Nmb can be employed to reduce type 2 cytokine-mediated inflammation. Native Nmb is a 10-mer peptide (SEQ ID NO: 1) that operates via its ability to bind the Nmb receptor (15). This example describes the results of an alanine scan to systematically replace various residues of the Nmb with alanine (Table 2) and the resulting ability of the variant Nmb peptides to inhibit type 2 cytokine production by TH2 cells. Further, caps were added to the native form of Nmb (SEQ ID NO: 1) and its bioactivity monitored (FIG. 5A).

Row | Molecule | capacity to inhibit IL-13 production compared to native Nmb | capacity to inhibit IL-5 production compared to native Nmb
1 | H2N-GALWATGHFM-amide (H-GALWATGHFM-NH2) [B] | significantly greater capacity | 
2 | H2N-GNLWATGH-amide (H-GNLWATGH-NH2) [X] | enhanced capacity | significant enhanced capacity
3 | Methanesulfonyl-GNLWATGHFM-amide [K] | significantly greater capacity | significantly reduced capacity
4 | H2N-GNLWATGHAM-amide (H-GNLWATGHAM-NH2) | significantly reduced capacity | 
5 | H2N-GNLWATGHFM-NHMe | significantly greater capacity | 
6 | H2N-LWATGHFM-amide (H-LWATGHFM-NH2) [Z] | enhanced capacity | 
7 | H2N-GNAWATGHFM-amide (H-GNAWATGHFM-NH2) [C] | significantly greater capacity | significantly reduced capacity
8 | H2N-GLWATGHFM-amide (H-GLWATGHFM-NH2) [O] |  | reduced capacity
9 | Ac-GLLWATGHFM-amide (Ac-GLLWATGHFM-NH2) [J] | significantly greater capacity | 
10 | H2N-LWATGHF-amide (H-LWATGHF-NH2) [AC] | enhanced capacity | 
11 | H2N-NLWATGHFM-amide (H-NLWATGHFM-NH2) |  | reduced capacity
12 | H2N-WATGHF-amide (H-WATGHF-NH2) [AH] | enhanced capacity | significant enhanced capacity
13 | H2N-GNLWATGHM-amide (H-GNLWATGHM-NH2) [V] | reduced capacity | reduced capacity
14 | H2N-GNLWATHFM-amide (H-GNLWATHFM-NH2) | enhanced capacity | 
15 | H2N-GNLWATGHF-amide (H-GNLWATGHF-NH2) |  | reduced capacity
16 | H2N-ATGHFM-amide (H-ATGHFM-NH2) [AI] | enhanced capacity | 
17 | H2N-NLWATGH-amide (H-NLWATGH-NH2) [AB] | enhanced capacity | 
18 | H2N-WATGHFM-amide (H-WATGHFM-NH2) [AD] | enhanced capacity | 
19 | H2N-GNLWATGHFA-amide (H-GNLWATGHFA-NH2) | significantly greater capacity | 
20 | H2N-NLWATGHF-amide (H-NLWATGHF-NH2) [Y] | enhanced capacity | significant enhanced capacity
21 | H2N-GNLWATAHFM-amide (H-GNLWATAHFM-NH2) | significantly reduced capacity | significantly reduced capacity
22 | H2N-GNLWTGHFM-amide (H-GNLWTGHFM-NH2) [R] | enhanced capacity | reduced capacity
23 | H2N-GNLAATGHFM-amide (H-GNLAATGHFM-NH2) | significantly greater capacity | 
24 | H2N-ANLWATGHFM-amide (H-ANLWATGHFM-NH2) | significantly greater capacity | 
25 | H2N-GNLWATG-amide (H-GNLWATG-NH2) [AA] | enhanced capacity | significant enhanced capacity
26 | H2N-GNLWATGFM-amide (H-GNLWATGFM-NH2) [U] |  | reduced capacity
27 | H2N-GNWATGHFM-amide (H-GNWATGHFM-NH2) [P] |  | reduced capacity
28 | H2N-LWATGH-amide (H-LWATGH-NH2) [AG] | enhanced capacity | significant enhanced capacity

system: NMBR expression by ILC2s; assay: NMBR expression by cultured lung ILC2s, flow cytometry; format: cell-based, mouse; details: ILC2s day 7 post-Nb, IL-2 and IL-7, overnight culture
Excerpt: FIG. 9. Basophils regulate NMBR expression. ILC2s were sort-purified from the lung of Nb-infected mice (day 7) and stimulated with survival cytokines (IL-7 and IL-2) and also with activated basophils, IL-4 or IL-33 overnight. NMBR expression was monitored by flow cytometric analysis post-culture. Data are presented as […] mean fluorescent intensity (GMFI). Statistical comparisons were done using a Student's t-test.
FIG. 14. Prostaglandin E2 upregulates expression of NMBR on lymphocytes. Lung ILC2s were sort-purified from the lungs of mice on day 7 post-Nb and cultured with a combination of survival cytokines (IL-2 and IL-7) and/or activating cytokines (IL-25 and IL-33). In addition, cultures were treated with NMB or prostaglandin E2 (PGE2) and the expression of NMBR was measured by flow cytometric analysis on day 4 post-culture. Statistical analysis was performed using a student's t-test. Negative NMBR staining as determined by an isotype control antibody is also shown (Isot).
NMBR expression by lung ILC2s was reduced when basophils are depleted following an Nb infection. To determine whether basophils directly mediate expression of NMBR or whether they operate through intermediate pathways, ILC2s were sort-purified from the lungs of Nb-infected mice (day 7) and cultured with the survival cytokines IL-2 and IL-7. Additionally, the ILC2s were cultured with activated basophils, IL-4, or IL-33 overnight. NMBR expression was subsequently monitored by flow cytometric analysis post-culture.
To better determine the mechanisms through which basophils regulate expression of NMBR on lymphocytes, ILC2s were cultured with a combination of survival and activating cytokines in the presence or absence of NMB or prostaglandin E2 (PGE2).

Row | Molecule | NMBR expression levels on ILC2s
29 | IL-4: cytokine known to promote ILC2 activation (protein, UniProt P05112 25-153, looked up) Interleukin-4: HKCDITLQEIIKTLNSLTEQKTLCTELTVTDIFAASKNTTEKETFCRAATVLRQFYSHHEKDTRCLGATAQQFHRHKQLIRFLKRLDRNLWGLAGLNSCPVKEANQSTLENFLERLKTIMREKYSKCSS | no changes
30 | IL-33: cytokine known to promote ILC2 activation (protein, UniProt O95760 1-270, looked up) Interleukin-33: MKPKMKYSTNKISTAKWKNTASKALCFKLGKSQQKAKEVCPMYFMKLRSGLMIKKEACYFRRETTKRPSLKTGRKHKRHLVLAACQQQSTVECFAFGISGVQKYTRALHDSSITGISPITEYLASLSTYNDQSITFALEDESYEIYVEDLKKDEKKDKVLLSYYESQHPSNESGDGVDGKMLMVTLSPTKDFWLHANNKEHSVELHKCEKPLPDQAFFVLHNMHSNCVSFECKTDPGVFIGVKDNHLALIKVDSSENLCTENILFKLSET | no changes

same assay, conditions: ILC2s day 7 post-Nb, survival and/or activating cytokines, day 4 post-culture

Row | Molecule | NMBR expression by ILC2s
31 | CCCCC[C@H](O)/C=C/[C@H]1[C@H](O)CC(=O)[C@@H]1C/C=C\CCCC(=O)O [PGE2, prostaglandin E2, reference compound] | significantly upregulated
32 | IL-25: activating cytokine used in ILC2 cultures (protein, UniProt Q9H293 33-177, looked up) Interleukin-25: YSHWPSCCPSKGQDTSEELLRWSTVPVPPLEPARPNRHPESCRASEDGPLNSRAISPWRYELDRDLNRLPQDLYHARCLCPHCVSLQTGSHMDPRGNSELLYHNQTVFYRRPCHGEKGTHKGYCLERRLYRVSLACVCVRPRVMG | failed to upregulate
33 | IL-33: cytokine known to promote ILC2 activation (protein, UniProt O95760 1-270, looked up) Interleukin-33: MKPKMKYSTNKISTAKWKNTASKALCFKLGKSQQKAKEVCPMYFMKLRSGLMIKKEACYFRRETTKRPSLKTGRKHKRHLVLAACQQQSTVECFAFGISGVQKYTRALHDSSITGISPITEYLASLSTYNDQSITFALEDESYEIYVEDLKKDEKKDKVLLSYYESQHPSNESGDGVDGKMLMVTLSPTKDFWLHANNKEHSVELHKCEKPLPDQAFFVLHNMHSNCVSFECKTDPGVFIGVKDNHLALIKVDSSENLCTENILFKLSET | failed to upregulate
